Laboratory results from the supplement of paper PMC6045584.
± gives the standard deviation of the averaged measurements.

Key:
SOTRASTAURIN/AEB071 = compound: CN1CCN(c2nc(C3=C(c4c[nH]c5ccccc45)C(=O)NC3=O)c3ccccc3n2)CC1 [SOTRASTAURIN/AEB071]; test: surviving fraction relative to DMSO-only wells; higher = less growth inhibition; conditions: exposure time: 5 days
Procedure, shortened: (§1)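 Tumour cell lines were grown to log phase and seeded at 250–500 cells per well in 384-well plates. They were exposed continuously to inhibitors at 0.5, 1, 5, 10, 50, 100, 500 and 1000 nM for five days, beginning 24 hours after seeding. Surviving fraction is CellTiter-Glo luminescence normalised to the median of DMSO-only wells.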

TEMOZOLOMIDE = compound: Cn1nnc2c(C(N)=O)ncn2c1=O [TEMOZOLOMIDE]; test: as above; conditions: exposure time: 5 days
Procedure, shortened: as §1

Test System | surviving fraction (SOTRASTAURIN/AEB071; 0.5 nM) | surviving fraction (SOTRASTAURIN/AEB071; 1 nM) | surviving fraction (SOTRASTAURIN/AEB071; 5 nM) | surviving fraction (SOTRASTAURIN/AEB071; 10 nM) | surviving fraction (SOTRASTAURIN/AEB071; 50 nM) | surviving fraction (SOTRASTAURIN/AEB071; 100 nM) | surviving fraction (SOTRASTAURIN/AEB071; 500 nM) | surviving fraction (SOTRASTAURIN/AEB071; 1000 nM) | surviving fraction (TEMOZOLOMIDE; 0.5 nM) | surviving fraction (TEMOZOLOMIDE; 1 nM) | surviving fraction (TEMOZOLOMIDE; 5 nM) | surviving fraction (TEMOZOLOMIDE; 10 nM) | surviving fraction (TEMOZOLOMIDE; 50 nM) | surviving fraction (TEMOZOLOMIDE; 100 nM) | surviving fraction (TEMOZOLOMIDE; 500 nM) | surviving fraction (TEMOZOLOMIDE; 1000 nM)
HCC1395 BREAST | 0.996 ± 0.018 | 1.09 ± 0.058 | 1.16 ± 0.12 | 1.12 ± 0.15 | 1.19 ± 0.13 | 1.1 ± 0.1 | 0.885 ± 0.14 | 0.969 ± 0.075 | 1.03 ± 0.034 | 1.1 ± 0.081 | 1.1 ± 0.11 | 1.02 ± 0.078 | 1.04 ± 0.044 | 1.01 ± 0.14 | 0.922 ± 0.14 | 1.06 ± 0.03
HCC1806 BREAST | 0.958 ± 0.19 | 0.944 ± 0.041 | 1.17 ± 0.078 | 1.08 ± 0.017 | 0.887 ± 0.026 | 1.01 ± 0.096 | 0.9673 ± 0.0067 | 0.908 ± 0.066 | 1 ± 0.043 | 1.083 ± 0.0076 | 1.19 ± 0.052 | 1.07 ± 0.081 | 1.12 ± 0.086 | 1.09 ± 0.034 | 1.05 ± 0.16 | 1.12 ± 0.11
HCC1954 BREAST | 1.1 ± 0.09 | 1.1 ± 0.08 | 1.2 ± 0.11 | 1.19 ± 0.27 | 0.63 ± 0.2 | 0.682 ± 0.12 | 0.502 ± 0.072 | 0.674 ± 0.16 | 1.11 ± 0.19 | 0.956 ± 0.25 | 1.198 ± 0.0064 | 1.2 ± 0.082 | 1.16 ± 0.12 | 0.989 ± 0.13 | 1.04 ± 0.24 | 0.976 ± 0.023
HCT15 LARGE INTESTINE | 1.03 ± 0.12 | 1.07 ± 0.024 | 1.05 ± 0.053 | 1.02 ± 0.081 | 1.05 ± 0.054 | 1.05 ± 0.061 | 1.02 ± 0.079 | 1.05 ± 0.069 | 1.014 ± 0.0029 | 1.029 ± 0.0053 | 0.999 ± 0.055 | 1.02 ± 0.053 | 1.02 ± 0.045 | 1.08 ± 0.05 | 1.04 ± 0.063 | 1.09 ± 0.062
HELA CERVIX | 1.03 ± 0.029 | 1.05 ± 0.052 | 1.05 ± 0.072 | 0.974 ± 0.043 | 1.14 ± 0.15 | 1.15 ± 0.063 | 1.11 ± 0.057 | 1.12 ± 0.092 | 1.04 ± 0.058 | 1.08 ± 0.09 | 1.04 ± 0.019 | 1.12 ± 0.078 | 1.07 ± 0.02 | 1.16 ± 0.084 | 1.07 ± 0.031 | 1.16 ± 0.072
HOS BONE | 1.021 ± 0.0061 | 1.01 ± 0.014 | 1.04 ± 0.023 | 1.014 ± 0.008 | 1.05 ± 0.014 | 1.03 ± 0.013 | 1.02 ± 0.018 | 0.974 ± 0.016 | 0.994 ± 0.018 | 1.038 ± 0.0071 | 1.028 ± 0.0056 | 1.05 ± 0.042 | 1.04 ± 0.012 | 1.04 ± 0.012 | 1.04 ± 0.016 | 1.058 ± 0.0076
HOSMNG BONE | 0.939 ± 0.079 | 0.932 ± 0.025 | 0.994 ± 0.035 | 0.947 ± 0.047 | 1.05 ± 0.12 | 0.963 ± 0.028 | 1.11 ± 0.061 | 1.01 ± 0.05 | 0.835 ± 0.15 | 0.927 ± 0.11 | 0.795 ± 0.051 | 0.89 ± 0.03 | 0.938 ± 0.12 | 0.936 ± 0.16 | 0.995 ± 0.12 | 0.957 ± 0.074
HSSYII SYNOVIAL | 0.909 ± 0.02 | 0.985 ± 0.084 | 0.984 ± 0.022 | 0.98 ± 0.02 | 0.87 ± 0.069 | 0.83 ± 0.065 | 0.833 ± 0.015 | 0.839 ± 0.039 | 0.958 ± 0.033 | 0.957 ± 0.061 | 0.965 ± 0.039 | 0.998 ± 0.051 | 1.02 ± 0.024 | 0.9798 ± 0.0033 | 0.981 ± 0.035 | 0.956 ± 0.04
HT1080 SOFT TISSUE | 1.07 ± 0.028 | 1.08 ± 0.024 | 1.053 ± 0.0085 | 1.05 ± 0.021 | 1.03 ± 0.025 | 1.04 ± 0.016 | 1.07 ± 0.019 | 1.16 ± 0.063 | 1.04 ± 0.039 | 1.03 ± 0.014 | 1.03 ± 0.026 | 1.03 ± 0.022 | 1.03 ± 0.026 | 1.04 ± 0.014 | 1.04 ± 0.017 | 1.03 ± 0.023
HU09 BONE | 0.957 ± 0.092 | 1.03 ± 0.088 | 1.08 ± 0.075 | 1.1 ± 0.075 | 0.898 ± 0.085 | 0.929 ± 0.11 | 0.851 ± 0.026 | 0.925 ± 0.11 | 0.817 ± 0.057 | 1.01 ± 0.042 | 1.08 ± 0.11 | 1.1 ± 0.014 | 0.964 ± 0.14 | 1.12 ± 0.051 | 0.966 ± 0.11 | 0.961 ± 0.076
HUO3N1 BONE | 1 ± 0.051 | 1.04 ± 0.075 | 1.08 ± 0.025 | 1.08 ± 0.054 | 1.001 ± 0.01 | 1.02 ± 0.025 | 0.897 ± 0.024 | 0.883 ± 0.017 | 0.981 ± 0.025 | 0.988 ± 0.045 | 1.029 ± 0.0051 | 1.04 ± 0.042 | 1.01 ± 0.039 | 1.06 ± 0.032 | 0.9827 ± 0.0083 | 1.02 ± 0.03
JIMT1 BREAST | 0.958 ± 0.039 | 0.941 ± 0.017 | 0.98 ± 0.033 | 0.96 ± 0.02 | 0.975 ± 0.038 | 0.956 ± 0.047 | 0.987 ± 0.037 | 0.992 ± 0.022 | 1 ± 0.022 | 1.03 ± 0.032 | 1.021 ± 0.0081 | 1.07 ± 0.07 | 1 ± 0.022 | 1.04 ± 0.038 | 1.01 ± 0.025 | 1.06 ± 0.065
JURKAT HAEMATOPOIETIC AND LYMPHOID TISSUE | 1.08 ± 0.047 | 1.13 ± 0.017 | 1.09 ± 0.042 | 1.08 ± 0.041 | 1.06 ± 0.012 | 1.03 ± 0.022 | 1.06 ± 0.044 | 1.05 ± 0.032 | 1.06 ± 0.019 | 1.08 ± 0.024 | 1.05 ± 0.032 | 1.05 ± 0.02 | 1.04 ± 0.029 | 1.01 ± 0.029 | 1.02 ± 0.02 | 1.04 ± 0.013
KPD BONE | 0.967 ± 0.054 | 0.974 ± 0.034 | 1.08 ± 0.062 | 1.04 ± 0.032 | 1.01 ± 0.031 | 1.08 ± 0.019 | 1.04 ± 0.043 | 1.07 ± 0.059 | 0.925 ± 0.022 | 0.955 ± 0.091 | 1.11 ± 0.079 | 1.01 ± 0.024 | 1.06 ± 0.088 | 1.074 ± 0.0076 | 0.983 ± 0.1 | 0.977 ± 0.043
LM7 BONE | 1.03 ± 0.077 | 0.945 ± 0.024 | 1.01 ± 0.075 | 1.05 ± 0.062 | 0.889 ± 0.051 | 0.907 ± 0.049 | 0.803 ± 0.035 | 0.811 ± 0.12 | 0.916 ± 0.081 | 0.989 ± 0.086 | 1.04 ± 0.085 | 1.05 ± 0.049 | 1.05 ± 0.077 | 1.09 ± 0.022 | 0.968 ± 0.065 | 0.967 ± 0.04
LNCAP PROSTATE | 1.12 ± 0.11 | 1.05 ± 0.11 | 1.06 ± 0.052 | 0.998 ± 0.087 | 1.22 ± 0.069 | 1.16 ± 0.1 | 1.23 ± 0.025 | 1.18 ± 0.039 | 0.966 ± 0.088 | 0.915 ± 0.073 | 0.985 ± 0.17 | 0.8907 ± 0.0074 | 0.93 ± 0.034 | 0.963 ± 0.092 | 0.897 ± 0.037 | 0.924 ± 0.083
MCF7 BREAST | 0.925 ± 0.066 | 0.917 ± 0.043 | 0.945 ± 0.052 | 0.935 ± 0.036 | 0.941 ± 0.036 | 0.941 ± 0.068 | 0.941 ± 0.053 | 0.966 ± 0.017 | 0.889 ± 0.03 | 0.932 ± 0.023 | 0.934 ± 0.027 | 0.907 ± 0.054 | 0.922 ± 0.031 | 0.941 ± 0.037 | 0.958 ± 0.058 | 0.987 ± 0.034
MDAMB134 BREAST | 0.907 ± 0.16 | 0.994 ± 0.19 | 0.752 ± 0.12 | 0.9 ± 0.011 | 0.913 ± 0.26 | 0.663 ± 0.12 | 0.724 ± 0.1 | 0.74 ± 0.0085 | 0.928 ± 0.0085 | 0.981 ± 0.033 | 0.926 ± 0.14 | 0.902 ± 0.15 | 0.975 ± 0.23 | 1.05 ± 0.17 | 0.953 ± 0.2 | 1.11 ± 0.08
MDAMB157 BREAST | 0.923 ± 0.041 | 1 ± 0.048 | 1.07 ± 0.12 | 1.04 ± 0.091 | 1.01 ± 0.03 | 0.971 ± 0.13 | 0.919 ± 0.053 | 0.936 ± 0.031 | 1.02 ± 0.067 | 0.986 ± 0.046 | 0.968 ± 0.09 | 1.1 ± 0.074 | 0.953 ± 0.06 | 1.11 ± 0.028 | 0.927 ± 0.055 | 0.954 ± 0.1
MDAMB231 BREAST | 0.955 ± 0.013 | 0.974 ± 0.037 | 1.01 ± 0.022 | 0.984 ± 0.031 | 1 ± 0.046 | 1.02 ± 0.0072 | 1.08 ± 0.033 | 1.05 ± 0.024 | 0.9454 ± 0.0069 | 0.992 ± 0.024 | 0.9815 ± 0.008 | 1.01 ± 0.016 | 0.986 ± 0.013 | 0.998 ± 0.023 | 0.975 ± 0.015 | 0.985 ± 0.025
MDAMB361 BREAST | 0.708 ± 0.053 | 0.758 ± 0.065 | 0.76 ± 0.12 | 0.776 ± 0.026 | 0.577 ± 0.099 | 0.561 ± 0.073 | 0.626 ± 0.099 | 0.591 ± 0.066 | 0.914 ± 0.14 | 0.93 ± 0.017 | 0.917 ± 0.15 | 0.889 ± 0.1 | 0.983 ± 0.16 | 0.925 ± 0.037 | 0.945 ± 0.1 | 0.908 ± 0.042
